# Experiments:
# [1] = tested on: epithelial cell line of normal liver (THLE-3); assay: XTT assay, survival of normal liver epithelial cell line; type: cell-based; conditions: THLE-3, FIG. 17A
# Method: (§1) Please refer to FIG. 17A to FIG. 18B, which are views showing epithelial cell line of normal liver treated with MPA+leptin for 24 hours and 48 hours respectively; and views showing STAT3- and MAPK-related signal paths after treating cell line of normal liver with MPA+leptin. As shown in the figures, after epithelial cell line of normal liver (THLE-3) is applied with MPA+leptin for […], MPA+leptin's effect on cell growth (i.e. survival rate) is analyzed through XTT assay. […] Besides, in FIG. 18A and FIG. 18B, protein expressions for STAT- and MAPK-related signal paths are analyzed.
# [2] = tested on: STAT- and MAPK-related signal paths; assay: Protein expression of STAT- and MAPK-related signal paths in normal liver cell line; type: cell-based
# Method: as §1
# liver cancer cells = assay: Flow cytometry, cell cycle of liver cancer cells; type: cell-based; conditions: MPA only, 24 hours
# Method: Please refer to FIG. 6A and FIG. 6B, which are views showing effect of MPA+leptin on cell cycle. As shown in the figures, for further recognizing role of MPA+leptin for liver cancer cells, the preferred embodiment applies leptin only, MPA only and MPA+leptin on liver cancer cells for 24 hours and a flow cytometry is used to show their effects on cell cycle. Furthermore, sub-G1/apoptosis parts in the cell cycle are analyzed through student's t-test.
# liver cancer patients = conditions: prior researches, FIG. 19B; P value 0.171; cited from earlier work
# [3] = target: T1, leptin receptor and progesterone receptor (Homo sapiens, UniProt P06401); assay: Immunoprecipitation and immunofluorescent staining, receptor interaction; type: cell-based
# T1 construct: endogenous in cells
# T1 sequence (P06401 1-933): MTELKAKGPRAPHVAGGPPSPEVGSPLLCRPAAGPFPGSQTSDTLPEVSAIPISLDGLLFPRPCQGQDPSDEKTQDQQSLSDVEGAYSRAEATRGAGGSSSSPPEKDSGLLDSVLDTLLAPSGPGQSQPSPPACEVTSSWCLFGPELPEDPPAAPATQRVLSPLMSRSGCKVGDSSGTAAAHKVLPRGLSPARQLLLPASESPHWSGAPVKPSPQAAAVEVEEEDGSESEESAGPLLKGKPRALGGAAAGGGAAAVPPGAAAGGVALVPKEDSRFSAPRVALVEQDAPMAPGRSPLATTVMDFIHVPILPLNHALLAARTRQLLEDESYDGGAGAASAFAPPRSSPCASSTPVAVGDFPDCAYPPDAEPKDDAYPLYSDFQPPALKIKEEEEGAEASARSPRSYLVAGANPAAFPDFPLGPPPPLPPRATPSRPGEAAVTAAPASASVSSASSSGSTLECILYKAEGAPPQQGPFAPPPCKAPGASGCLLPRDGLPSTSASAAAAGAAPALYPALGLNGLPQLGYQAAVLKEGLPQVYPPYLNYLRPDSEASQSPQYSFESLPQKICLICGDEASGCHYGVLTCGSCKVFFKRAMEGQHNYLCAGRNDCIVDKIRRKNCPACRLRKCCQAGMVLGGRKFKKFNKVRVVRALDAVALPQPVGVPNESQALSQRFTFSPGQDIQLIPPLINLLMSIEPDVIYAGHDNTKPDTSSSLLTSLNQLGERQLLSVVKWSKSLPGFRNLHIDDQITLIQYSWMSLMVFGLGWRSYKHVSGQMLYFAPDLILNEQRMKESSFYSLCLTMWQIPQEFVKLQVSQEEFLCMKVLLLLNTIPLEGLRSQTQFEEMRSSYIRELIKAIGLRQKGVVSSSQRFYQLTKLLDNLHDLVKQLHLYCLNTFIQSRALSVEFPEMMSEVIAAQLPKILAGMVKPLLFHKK
# T1 sequence (P48357 22-1165 partner): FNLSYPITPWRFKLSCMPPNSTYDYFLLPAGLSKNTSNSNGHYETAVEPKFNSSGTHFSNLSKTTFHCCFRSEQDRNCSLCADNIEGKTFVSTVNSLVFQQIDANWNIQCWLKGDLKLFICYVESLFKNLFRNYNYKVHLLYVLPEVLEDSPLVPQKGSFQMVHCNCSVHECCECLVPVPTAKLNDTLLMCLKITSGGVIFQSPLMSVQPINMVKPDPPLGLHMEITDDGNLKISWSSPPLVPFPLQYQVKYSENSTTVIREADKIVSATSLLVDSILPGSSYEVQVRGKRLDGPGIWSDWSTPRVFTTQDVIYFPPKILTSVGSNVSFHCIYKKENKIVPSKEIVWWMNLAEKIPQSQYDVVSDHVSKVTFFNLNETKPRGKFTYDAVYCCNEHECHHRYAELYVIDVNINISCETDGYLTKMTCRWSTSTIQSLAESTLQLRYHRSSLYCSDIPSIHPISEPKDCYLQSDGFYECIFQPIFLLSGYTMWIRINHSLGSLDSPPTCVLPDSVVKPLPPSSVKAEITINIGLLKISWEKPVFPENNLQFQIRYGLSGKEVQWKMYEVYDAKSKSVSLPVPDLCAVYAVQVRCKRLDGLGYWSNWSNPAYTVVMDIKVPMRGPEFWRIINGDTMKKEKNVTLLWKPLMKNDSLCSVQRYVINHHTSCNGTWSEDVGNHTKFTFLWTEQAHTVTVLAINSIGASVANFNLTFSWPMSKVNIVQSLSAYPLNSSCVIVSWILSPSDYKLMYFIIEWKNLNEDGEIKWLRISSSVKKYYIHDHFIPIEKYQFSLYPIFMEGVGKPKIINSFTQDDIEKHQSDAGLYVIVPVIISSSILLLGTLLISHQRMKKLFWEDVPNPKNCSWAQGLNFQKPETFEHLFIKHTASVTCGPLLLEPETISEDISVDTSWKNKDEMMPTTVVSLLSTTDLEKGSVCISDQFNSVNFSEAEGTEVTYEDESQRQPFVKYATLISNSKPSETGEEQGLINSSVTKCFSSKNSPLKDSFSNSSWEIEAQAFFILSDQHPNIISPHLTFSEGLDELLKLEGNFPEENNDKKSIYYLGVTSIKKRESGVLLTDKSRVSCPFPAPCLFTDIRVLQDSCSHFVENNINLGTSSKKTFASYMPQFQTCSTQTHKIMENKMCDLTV
# Method: Please refer to FIG. 8A and FIG. 8B, which are views showing interaction between a leptin receptor and a progesterone receptor through immunoprecipitation and immunofluorescent staining. As shown in the figures, for acknowledging interaction between a leptin receptor and a progesterone receptor, cellular proteins are processed through immunoprecipitation and western blotting with anti-pgR after liver cancer cells are applied with leptin only, MPA only and MPA+leptin for 30 minutes separately. […] The same results are shown through immunofluorescent staining. After the cells are processed for 10 minutes, the progesterone receptor is dyed with FITC; the leptin receptor is dyed with Texas-Red; and cell membrane is dyed with phalloidin, which are observed with fluoresce microscope under 40×. […] Thus, it is confirmed that the leptin receptor and the progesterone receptor interact to work on the liver cancer cells.
compound,measurement,setting,value
"CC(=O)O[C@]1(C(C)=O)CC[C@H]2[C@@H]3C[C@H](C)C4=CC(=O)CC[C@]4(C)[C@H]3CC[C@@]21C [MPA, medroxyprogesterone acetate]","effect on survival rate of, and poisoning of, normal liver epithelial cells",[1],no obvious effect
same,effect on STAT- and MAPK-related signal proteins,[2],no obvious effect
same,G1 and G2/M,liver cancer cells,decreased trend
same,S,liver cancer cells,increased trend
same,sub-G1,liver cancer cells,increasing trend
same,association of patient's survival rate with MPA treatment after surgery,liver cancer patients,did not find significant association
same,merged level between leptin receptor and progesterone receptor,"[3]; 10 minutes, immunofluorescent staining",some of the leptin receptor are merged with some of the progesterone receptor
same,interaction of leptin receptor and progesterone receptor,"[3]; 30 minutes, immunoprecipitation and western blotting with anti-pgR",interacted

# Reference: patent US20110098219A1, “System for Curing Hepatic Cancer with Leptin” (KAOHSIUNG MEDICAL UNIVERSITY, priority 2009, published 2011)
